Laboratory results as given in BindingDB's records for doi:10.1021/acs.jmedchem.8b00629 (Ludwig-Maximilians-University Munich, 2018).

Experiments:
[1] = Inhibition of mouse GAT3 expressed in HEK293 cells assessed as reduction in [3H]GABA uptake preincubated for 25 mins followed by [3H]GABA addition measured after 4 mins by liquid scintillation counting analysis
[2] = Inhibition of mouse GAT2 expressed in HEK293 cells assessed as reduction in [3H]GABA uptake preincubated for 25 mins followed by [3H]GABA addition measured after 4 mins by liquid scintillation counting analysis

| SMILES | IC50 [1] [µM] | IC50 [2] [µM] |
| --- | --- | --- |
| O=C(O)[C@@H]1CCCN(CCC#Cc2cccc(/N=N/c3ccccc3)c2)C1 | > 100 | > 100 |
| O=C(O)[C@@H]1CCCN(CCC#Cc2ccc(/N=N/c3ccccc3)cc2)C1 | > 100 | > 100 |
| O=C(O)[C@@H]1CCCN(CCC#Cc2cccc(/N=N/c3cccc4ccccc34)c2)C1 | > 100 | > 100 |
| O=C(O)[C@@H]1CCCN(CCC#Cc2ccc(/N=N/c3cccc4ccccc34)cc2)C1 | > 100 | > 100 |
